Test results reported in paper PMC8501799, “Constitutive signal bias mediated by the human GHRHR splice variant 1” (Proceedings of the National Academy of Sciences of the …, 2021).

How the values were obtained:
[1] = test system: SV1/Gs; test: Gs activation (G protein NanoBiT assay); format: cell-based, human; conditions: HEK293T
Procedure: HEK293T cells were seeded at a density of 30,000 cells per well into 96-well culture plates pretreated with poly-D-lysine hydrobromide. After incubation for 24 h to reach 70% to 80% confluence, the cells were transiently transfected with GHRHR or SV1, Gαs-LgBiT, Gβ1, and Gγ2-SmBiT, at a 2:1:5:5 mass ratio. Twenty-four hours after transfection, cells were washed once and incubated for 30 min at 37 °C with HBSS buffer (pH 7.4) supplemented with 0.1% BSA and 10 mM HEPES. They were then reacted with coelenterazine H (5 μM) for 1 h at RT. Luminescence signals were measured using an Envision plate reader at 15-s intervals (25 °C). […] Data were corrected to baseline and vehicle-treated samples.
(§1) All functional study data were analyzed using Prism 7 (GraphPad) and presented as means ± SEM from at least three independent experiments. Concentration-response curves were evaluated with a three-parameter logistic equation. The significance was determined with either two-tailed Student’s t test or one-way ANOVA, and P < 0.05 is considered statistically significant.
Table S1. Effects of SV1 on GHRH-induced Gs activation.
Plasmid pEC50 Emax (% WT GHRHR)
G protein NanoBiT data were analyzed using a three-parameter logistic equation to d et ermine pEC50 and Emax values. pEC50 is the negative logarithm of the molar concentration of agonist that induced half the maximal response. Emax is expressed as a percentage of GHRHR/Gs response.
All values are means ± S.E.M. of five independent experiments (n = 5) conducted in duplicate. One-way ANOVA was used to determine statistical significance (*P < 0.05). WT, wild-type; NA, not

[2] = test system: SV1 Y69A; test: cAMP accumulation; format: cell-based, human; conditions: Table S4, mean ± SEM
Procedure: (§2) GHRH-stimulated cAMP accumulation was measured by a LANCE Ultra cAMP kit (PerkinElmer). Briefly, HEK293T cells (24 h after transfection with SV1 or GHRHR) or prostate cancer cells were digested by 0.2% (wt/vol) EDTA and washed once with Dulbecco’s phosphate-buffered saline (PBS). Cells were then resuspended with stimulation buffer (Hanks’ balanced salt solution [HBSS] supplemented with 5 mM HEPES, 0.5 mM IBMX, and 0.1% [wt/vol] bovine serum albumin [BSA], pH 7.4) to a density of 0.6 million cells per milliliter and added to 384-well white plates (3,000 cells per well). […] The reaction was stopped by adding 5 μL Eu-cAMP tracer and 5 μL ULight-anti-cAMP. After 1 h RT incubation, TR-FRET signals (excitation: 320 nm, emission: 615 and 665 nm) were measured by an Envision plate reader (PerkinElmer). cAMP concentrations were interpolated by a standard curve.
as §1
(§3) Table S4. Effects of residue mutation in the ligand-binding pocket of SV1 on GHRH-induced cAMP […]
(§4) Mutant pEC50 Emax Cell surface expression ΔLog (τ/KA)
(§5) (% WT GHRHR) (% WT GHRHR) cAMP accumulation data were analyzed using a three-parameter logistic equation to determine pEC50 and Emax values. pEC50 is the negative logarithm of the molar concentration of agonist that induced half the maximal response. Emax for mutants is expressed as a percentage of the WT GHRHR. Data were analyzed by nonlinear regression using the operational model equation to determine t he logR values (logτ/KA, i.e., logarithm of the transduction ratio). τ is the effi cacy value of the agonist and was corrected by cell surface expression of the receptor. KA is dissociation constant. Changes in transduction ratio (ΔlogR) were calculated to determine the relative effectiveness of the mutants. All values are means ± S.E.M. of four independent experiments (n = 4) conducted in quadruplicate. Statistical analysis was carried out by comparing the control responses in the WT-SV1. *, P < 0.05, **, P < 0.01 and ***, P < 0.001, determined by one-way

[3] = test system: SV1 F62A; test: cAMP accumulation; format: cell-based, human; conditions: Table S4, mean ± SEM
Procedure: as §2, §1, §3, §4, §5

[4] = test system: SV1 L290A; test: cAMP accumulation; format: cell-based, human; conditions: Table S4, mean ± SEM
Procedure: as §2, §1, §3, §4, §5

[5] = test system: SV1 S145A; test: cAMP accumulation; format: cell-based, human; conditions: Table S4, mean ± SEM
Procedure: as §2, §1, §3, §4, §5

[6] = test system: SV1 L294A; test: cAMP accumulation; format: cell-based, human; conditions: Table S4, mean ± SEM
Procedure: as §2, §1, §3, §4, §5

[7] = test system: SV1 H146A; test: cAMP accumulation; format: cell-based, human; conditions: Table S4, mean ± SEM
Procedure: as §2, §1, §3, §4, §5

[8] = test system: SV1 K66A; test: cAMP accumulation; format: cell-based, human; conditions: Table S4, mean ± SEM
Procedure: as §2, §1, §3, §4, §5

[9] = test system: SV1 I225A; test: cAMP accumulation; format: cell-based, human; conditions: Table S4, mean ± SEM
Procedure: as §2, §1, §3, §4, §5

[10] = test system: SV1 K118A; test: cAMP accumulation; format: cell-based, human; conditions: Table S4, mean ± SEM
Procedure: as §2, §1, §3, §4, §5

[11] = test system: SV1 V65A; test: cAMP accumulation; format: cell-based, human; conditions: Table S4, mean ± SEM
Procedure: as §2, §1, §3, §4, §5

[12] = test system: cell cycle; test: Cell cycle analysis (propidium iodide, flow cytometry); format: cell-based; conditions: 1 μM GHRH, 6 h
Procedure: Following the treatment, the cells were digested by trypsin and collected by centrifugation. Cell pellets were washed with PBS and fixed with 70% (vol/vol) ethanol at 4 °C overnight. Cells were again collected by centrifugation and washed twice with PBS. They were then resuspended in PBS containing 0.2% Triton X-100, 50 μg/mL propidium iodide (PI), and […] RNase A and incubated for 30 min at 4 °C in the dark. After incubation, fluorescence intensity was measured with a NovoCyte flow cytometer (Acea Biosciences). Cells were gated for PI staining and cell accumulation in G1, and S and G2/M phases were calculated using the NovoExpress software.

[13] = HEK293T, LANCE Ultra cAMP, 30 min RT, 0.5 mM IBMX, n = 4 in quadruplicate
[14] = HEK293T, n = 4 in quadruplicate
[15] = operational model, τ corrected by cell surface expression, n = 4

CC[C@H](C)[C@H](NC(=O)[C@H](C)NC(=O)[C@H](CC(=O)O)NC(=O)[C@H](C)NC(=O)[C@@H](N)Cc1ccc(O)cc1)C(=O)N[C@@H](Cc1ccccc1)C(=O)N[C@H](C(=O)N[C@@H](CC(N)=O)C(=O)N[C@@H](CO)C(=O)N[C@@H](Cc1ccc(O)cc1)C(=O)N[C@@H](CCCNC(=N)N)C(=O)N[C@@H](CCCCN)C(=O)N[C@H](C(=O)N[C@@H](CC(C)C)C(=O)NCC(=O)N[C@@H](CCC(N)=O)C(=O)N[C@@H](CC(C)C)C(=O)N[C@@H](CO)C(=O)N[C@@H](C)C(=O)N[C@@H](CCCNC(=N)N)C(=O)N[C@@H](CCCCN)C(=O)N[C@@H](CC(C)C)C(=O)N[C@@H](CC(C)C)C(=O)N[C@@H](CCC(N)=O)C(=O)N[C@@H](CC(=O)O)C(=O)N[C@H](C(=O)N[C@@H](CCSC)C(=O)N[C@@H](CO)C(=O)N[C@@H](CCCNC(=N)N)C(=O)N[C@@H](CCC(N)=O)C(=O)N[C@@H](CCC(N)=O)C(=O)NCC(=O)N[C@@H](CCC(=O)O)C(=O)N[C@@H](CO)C(=O)N[C@@H](CC(N)=O)C(=O)N[C@@H](CCC(N)=O)C(=O)N[C@@H](CCC(=O)O)C(=O)N[C@@H](CCCNC(=N)N)C(=O)NCC(=O)N[C@@H](C)C(=O)N[C@@H](CCCNC(=N)N)C(=O)N[C@@H](C)C(=O)N[C@@H](CCCNC(=N)N)C(=O)N[C@@H](CC(C)C)C(N)=O)[C@@H](C)CC)C(C)C)[C@@H](C)O [GHRH, growth hormone–releasing hormone]
Emax of Gs activation ([1]; AUC 0 to 25 min, mean ± SEM, n = 5 in duplicate, * P < 0.05): 56.67 ± 13.79 % WT GHRHR | pEC50 of Gs activation ([1]; AUC 0 to 25 min, three-parameter logistic, mean ± SEM, n = 5 in duplicate, * P < 0.05): 5.63 ± 0.36 | ability of SV1 to activate Gs ([1]; compared with GHRHR, Fig. 1A): significantly impaired | pEC50 of cAMP accumulation [2, 13]: 5.44 ± 0.09 | Emax of cAMP accumulation [2, 14]: 104.75 ± 4.29 % WT GHRHR | ΔLog (τ/KA) [2, 15]: -3.81 ± 0.10 | pEC50 of cAMP accumulation [3, 13]: 5.28 ± 0.08 | Emax of cAMP accumulation [3, 14]: 105.64 ± 4.54 % WT GHRHR | ΔLog (τ/KA) [3, 15]: -4.41 ± 0.14 | pEC50 of cAMP accumulation [4, 13]: 5.58 ± 0.08 | Emax of cAMP accumulation [4, 14]: 109.60 ± 3.90 % WT GHRHR | ΔLog (τ/KA) [4, 15]: -4.56 ± 0.09 | pEC50 of cAMP accumulation [5, 13]: 6.34 ± 0.09 | Emax of cAMP accumulation [5, 14]: 101.87 ± 3.50 % WT GHRHR | ΔLog (τ/KA) [5, 15]: -4.22 ± 0.14 | pEC50 of cAMP accumulation [6, 13]: 5.32 ± 0.10 | Emax of cAMP accumulation [6, 14]: 106.26 ± 5.25 % WT GHRHR | ΔLog (τ/KA) [6, 15]: -4.96 ± 0.12 | pEC50 of cAMP accumulation [7, 13]: 5.07 ± 0.08 | Emax of cAMP accumulation [7, 14]: 101.06 ± 4.83 % WT GHRHR | ΔLog (τ/KA) [7, 15]: -4.64 ± 0.11 | pEC50 of cAMP accumulation [8, 13]: 5.60 ± 0.08 | Emax of cAMP accumulation [8, 14]: 106.82 ± 4.09 % WT GHRHR | ΔLog (τ/KA) [8, 15]: -4.02 ± 0.11 | pEC50 of cAMP accumulation [9, 13]: 4.98 ± 0.12 | Emax of cAMP accumulation [9, 14]: 76.03 ± 5.48 % WT GHRHR | ΔLog (τ/KA) [9, 15]: -3.85 ± 0.13 | pEC50 of cAMP accumulation [10, 13]: 4.61 ± 0.12 | Emax of cAMP accumulation [10, 14]: 92.40 ± 7.25 % WT GHRHR | ΔLog (τ/KA) [10, 15]: -4.51 ± 0.13 | pEC50 of cAMP accumulation [11, 13]: 5.33 ± 0.09 | Emax of cAMP accumulation [11, 14]: 106.08 ± 4.91 % WT GHRHR | ΔLog (τ/KA) [11, 15]: -4.08 ± 0.12 | cells in G1 phase ([12]; decreased from 46.6): 32.8% | cells in G2/M phase ([12]; increased from 22.8): 37.7%
